In patent publication US20250154143A1, “PRODRUGS FOR USE IN THE TREATMENT OF TISSUE DAMAGE” (UCL BUSINESS LTD, priority 2021, published 2025):
In brackets after ≈: the same amount, converted by molar mass. Counter-ions that a name gives are not always drawn.

What was measured:
[1] = Thermodynamic solubility in PBS, FaSSIF and SGF; format: physicochemical; conditions: thermodynamic from solid, room temperature
Protocol: A known quantity of the Examples and control compounds were weighed into a suitable vessel (whatman miniuniprep vials) and a known volume of the required media was added (e.g. Simulated Gastric Fluid pH 1.2 [SGF], Simulated Fasted State Intestinal Fluid pH 6.5 [FaSSIF] or Phosphate Buffered Saline pH 7.4 [PBS]). The samples were subjected to vortex mixing for 2 minutes followed by agitation on a shaker for 24 hours at room temperature at 800 rpm. The samples were then centrifuged for 20 minutes at 4000 rpm, the miniuniprep vials compressed and the filtrates analysed by HPLC (Waters Xbridge C18 4.6×100 mm, mobile phase A: 0.1% TFA in water, mobile phase B: 0.1% TFA in acetonitrile).

[2] = molecular target: T1, human CRP (Homo sapiens, UniProt P02741); conditions: rat acute myocardial infarction model, rats receiving human CRP; cited from earlier work
T1 construct: The final concentrations were 0.73 μM native pentameric CRP; from tissue
T1 sequence (P02741 19-224): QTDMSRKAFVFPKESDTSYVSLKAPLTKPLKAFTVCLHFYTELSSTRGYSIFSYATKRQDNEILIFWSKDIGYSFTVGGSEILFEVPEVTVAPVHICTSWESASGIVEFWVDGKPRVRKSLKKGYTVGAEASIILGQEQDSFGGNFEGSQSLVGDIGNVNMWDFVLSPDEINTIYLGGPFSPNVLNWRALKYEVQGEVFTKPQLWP

[3] = Stability in FaSSIF, SGF and PBS; format: physicochemical; conditions: 37° C.
Protocol: 10 μL of a 10 mM stock solution of the Examples were dissolved in 490 μL DMSO to afford […] working solution
Dissolve 0.04 g NaCl and 0.064 g pepsin in 0.14 mL HCl and add sufficient water to 20 mL volume. The pH of the test solution was 1.20±0.05.
0.056% (w/v) lecithin, 0.161% (w/v) sodium taurocholate, 0.39% (w/v) monobasic potassium phosphate, 0.77% (w/v) potassium chloride, deionized H2O. The pH of the test solution was 6.5±0.05.
30 mL of 10×PBS (pH7.4) was added into a 50 mL flask and diluted with water. The solution was mixed well and adjusted to pH 7.4 with 1N HCl.
Protocol for Determining Stability 2 μL of the 200 μL working solution of the Examples was added into 96-deep-well plates for T0, T60, T120, T360 and T1440 timepoints. Duplicates were prepared.
Stability studies were commenced by the addition of 198 μL of the required media (e.g. Simulated Gastric Fluid pH 1.2 [SGF], Simulated Fasted State Intestinal Fluid pH 6.5 [FaSSIF]) and Phosphate Buffered Saline pH 7.4 [PBS]) to each well except T0. The samples were incubated at 37° C. at 600 rpm for the appointed time. The samples at the corresponding timepoint were removed and immediately mixed with 400 μL of 0.3% FA in MeCN containing 200 ng/mL tolbutamide and labetalol (internal standard). 200 μL of suspension was removed and mixed with 400 μL of 0.3% FA in cold MeCN containing 200 ng/mL tolbutamide and labetalol. The samples were centrifuged at 4000 rpm at 4° C. for 20 minutes. 60 μL of the supernatant was removed and mixed with 180 μL purified water and thoroughly mixed and analysed by LCMS (Shimadzu LC 30-AD, ACQUITY UPLC HSS T3 1.8 um 2.1*50 mm Part No. 186003538, with mobile phase A: 0.1% formic acid in water, mobile phase B: 0.1% formic acid in MeCN. Formation of parent was also monitored as a metabolite.
Samples were analysed by Mass Spectrometry QTRAP 6500+

[4] = Phosphate Buffered Saline (PBS), aqueous buffer, PBS pH 7.4, 24 hour timepoint
[5] = Simulated Fasted State Intestinal Fluid (FaSSIF), FaSSIF pH 6.5, 24 hour timepoint
[6] = Simulated Gastric Fluid (SGF), simulated gastric fluid, SGF pH 1.2, 24 hour timepoint

Compound | solubility thermodynamic at 24 h [1, 4] | solubility thermodynamic at 24 h [1, 5] | solubility thermodynamic at 24 h [1, 6] | Effect on adverse effects of human CRP [2] | FaSSIF (pH 6.5) % remaining ([3]; FaSSIF pH 6.5, 6 hr) | FaSSIF (pH 6.5) % remaining ([3]; FaSSIF pH 6.5, 24 h) | PBS (pH 7.4) % remaining ([3]; PBS pH 7.4, 6 h) | PBS (pH 7.4) % remaining ([3]; PBS pH 7.4, 24 h) | SGF (pH 1.2) % remaining ([3]; SGF pH 1.2, 6 h) | SGF (pH 1.2) % remaining ([3]; SGF pH 1.2, 24 h)
O=C(N[C@@H](C(=O)O)C1CN2CCC1CC2)c1ccc(C(=O)N[C@@H](C(=O)O)C2CN3CCC2CC3)cc1 (stereo partly drawn) [APL-2191.2HCl, (R,2R,2′R)-2,2′-(terephthaloylbis(azanediyl))bis(2-((R)-quinuclidin-3-yl)acetic acid) bis hydrochloride salt] | 1690 µg/mL | 2510 µg/mL | 4560 µg/mL |  |  |  |  |  |  | 
C[N+](C)(C)CCOP(=O)([O-])OCCCCCCOP(=O)([O-])OCC[N+](C)(C)C [BPC6, bis(phosphocholine)hexane] |  |  |  | completely abrogate the adverse effects of human CRP |  |  |  |  |  | 
C[N+](C)(C)CCOP(=O)(O)OCCCCCCCCOP(=O)(O)OCC[N+](C)(C)C [BPC8, bis(phosphocholine)octane] |  |  |  | completely abrogate the adverse effects of human CRP |  |  |  |  |  | 
COC(=O)[C@H](NC(=O)c1ccc(C(=O)N[C@@H](C(=O)OC)C2CN3CCC2CC3)cc1)C1CN2CCC1CC2 (stereo partly drawn) [Example 1, (R,2R,2′R)-2,2′-(terephthaloylbis(azanediyl))bis(2-((R)-quinuclidin-3-yl)acetic acid) bis methyl ester] | 1220 µg/mL (≈ 2.31 mM) | 4690 µg/mL (≈ 8.9 mM) | 5930 µg/mL (≈ 11.3 mM) |  | 98.3% | 113.3% | 84.07% | 55.89% | 101.2% | 92.6%
CCOC(=O)[C@H](NC(=O)c1ccc(C(=O)N[C@@H](C(=O)OCC)C2CN3CCC2CC3)cc1)C1CN2CCC1CC2 (stereo partly drawn) [Example 12, (R,2R,2′R)-2,2′-(terephthaloylbis(azanediyl))bis(2-((R)-quinuclidin-3-yl)acetic acid) bis ethyl ester] | 5520 µg/mL (≈ 9.94 mM) | 4540 µg/mL (≈ 8.18 mM) | 4000 µg/mL (≈ 7.22 mM) |  | 105.0% | 95.2% | 84.33% | 87.14% | 101.2% | 92.3%
CC(C)OC(=O)[C@H](NC(=O)c1ccc(C(=O)N[C@@H](C(=O)OC(C)C)C2CN3CCC2CC3)cc1)C1CN2CCC1CC2 (stereo partly drawn) [Example 13, (R,2R,2′R)-2,2′-(terephthaloylbis(azanediyl))bis(2-((R)-quinuclidin-3-yl)acetic acid) bis isopropyl ester] | 4560 µg/mL (≈ 7.83 mM) | 5200 µg/mL (≈ 8.93 mM) | 5140 µg/mL (≈ 8.82 mM) |  | 99.7% | 110.4% | 103.43% | 104.61% | 107.2% | 100.0%
